# In ChEMBL document CHEMBL5113393, “Discovery of 2-((2-methylbenzyl)thio)-6-oxo-4-(3,4,5-trimethoxyphenyl)-1,6-dihydropyrimidine-5-carbonitrile as a novel and effective bromodomain and extra-terminal (BET) inhibitor for the treatment of sepsis” (Eur J Med Chem, 2022):
# The source made the active and inactive calls. No cut-off for these calls is given here.
# Key:
# [1] = target: T1, Bromodomain-containing protein 4 (Homo sapiens, UniProt O60885); assay: Inhibition of BRD4 BD1 (unknown origin) using FAM-labeled JQ-1 as fluorescent substrate assessed as inhibition constant incubated for 30 mins by competitive fluorescence polarization method
# RAW264.7 [2] = assay: Antiinflammatory activity in mouse RAW264.7 cells assessed as inhibition of LPS-induced NO production at 5 uM preincubated for 2 hrs followed by LPS stimulation and measured after 22 hrs by Griess reagent-based assay relative to control; type: functional; conditions: time 24 hrs
# RAW264.7 [3] = assay: Antiinflammatory activity in mouse RAW264.7 cells assessed as inhibition of LPS-induced NO production at 10 uM preincubated for 2 hrs followed by LPS stimulation and measured after 22 hrs by Griess reagent-based assay relative to control; type: functional; conditions: time 24 hrs
# [4] = target: T1, Bromodomain-containing protein 4; assay: Inhibition of BRD4 BD1 (57 to 168 residues) (unknown origin) transfected in Escherichia coli (DE3) using FAM-labeled JQ-1 as fluorescent substrate at 100 uM incubated for 30 mins by competitive fluorescence polarization method relative to control
# [5] = target: T1, Bromodomain-containing protein 4; assay: Inhibition of BRD4 BD2 (352 to 457 residues) (unknown origin) transfected in Escherichia coli (DE3) using FAM-labeled JQ-1 as fluorescent substrate at 100 uM incubated for 30 mins by competitive fluorescence polarization method relative to control
# [6] = target: T1, Bromodomain-containing protein 4; assay: Binding affinity to His-tagged biotinylated BRD4 BD1 (unknown origin) assessed as dissociation constant by biolayer interferometry analysis
# [7] = target: T1, Bromodomain-containing protein 4; assay: Binding affinity to His-tagged biotinylated BRD4 BD1 (unknown origin) assessed as binding constant (Kon) by biolayer interferometry analysis
# [8] = target: T1, Bromodomain-containing protein 4; assay: Binding affinity to His-tagged biotinylated BRD4 BD1 (unknown origin) assessed as dissociation rate constant by biolayer interferometry analysis
# [9] = target: T1, Bromodomain-containing protein 4; assay: Inhibition of BRD4 BD1 (57 to 168 residues) (unknown origin) transfected in Escherichia coli (DE3) using FAM-labeled JQ-1 as fluorescent substrate at 50 uM incubated for 30 mins by competitive fluorescence polarization method relative to control
# [10] = target: T1, Bromodomain-containing protein 4; assay: Inhibition of BRD4 BD1 (57 to 168 residues) (unknown origin) transfected in Escherichia coli (DE3) using FAM-labeled JQ-1 as fluorescent substrate at 5 uM incubated for 30 mins by competitive fluorescence polarization method relative to control
# [11] = target: T1, Bromodomain-containing protein 4; assay: Inhibition of BRD4 BD2 (352 to 457 residues) (unknown origin) transfected in Escherichia coli (DE3) using FAM-labeled JQ-1 as fluorescent substrate at 50 uM incubated for 30 mins by competitive fluorescence polarization method relative to control
# [12] = target: T1, Bromodomain-containing protein 4; assay: Inhibition of BRD4 BD2 (352 to 457 residues) (unknown origin) transfected in Escherichia coli (DE3) using FAM-labeled JQ-1 as fluorescent substrate at 5 uM incubated for 30 mins by competitive fluorescence polarization method relative to control
# Mus musculus = assay: Protection against LPS-induced sepsis in C57BL/6 mouse model assessed as reduction in hypothermia at 10 mg/kg, ip qd administered for 3 days followed by LPS stimulation for 12 hrs and measured every 1 hr by digital thermometer; type: functional, organism-based; conditions: time 84.0 hrs
Compound,Ki [1] [nM],inhibition [4] [%],inhibition [5] [%],further results
COc1cc(-c2nc(SCc3cccc(C)c3)[nH]c(=O)c2C#N)cc(OC)c1OC,1250,,,inhibition at 5 µM (RAW264.7 [2]): 14.9%; inhibition at 10 µM (RAW264.7 [3]): 75.5%
COc1ccc(-c2nc(SCc3ccccc3Cl)[nH]c(=O)c2C#N)cc1C,,53.1,55.1,
COc1ccc(-c2nc(SCc3ccccc3Cl)n(C)c(=O)c2C#N)cc1OC,18300,,,inhibition at 5 µM (RAW264.7 [2]): 5.19%; inhibition at 10 µM (RAW264.7 [3]): 14.9%
COc1cc(-c2nc(SCc3ccccc3Cl)[nH]c(=O)c2C#N)cc(OC)c1OC,1740,84.7,74.3,Kd [6]: 756 nM; K [7]: 3.84 10^4/Ms; Kdiss [8]: 2.9 10^-2/s; inhibition at 5 µM (RAW264.7 [2]): 75.2%; inhibition at 10 µM (RAW264.7 [3]): 99.7%
COc1cc(OC)cc(-c2nc(SCc3ccccc3Cl)[nH]c(=O)c2C#N)c1,,40.3,47.2,
COC(=O)c1cc(-c2nc(SCc3ccccc3Cl)[nH]c(=O)c2C#N)ccc1OC,,42.9,48,
COc1ccc(-c2nc(SCc3ccccc3Cl)ncc2C#N)cc1OC,4930,,,
COc1cc(-c2nc(SCc3ccccc3Cl)[nH]c(=O)c2C#N)ccc1OC(F)F,,54.4,59.2,
COc1cccc(-c2nc(SCc3ccccc3Cl)[nH]c(=O)c2C#N)c1OC,,50.7,51.3,
COc1cc(-c2nc(SCc3ccccc3Cl)[nH]c(=O)c2C#N)cc(Cl)c1OC,,59.7,59.6,
COc1ccc(-c2nc(SCc3ccccc3Cl)[nH]c(=O)c2C#N)cc1,,44.1,18.8,
COc1cc(-c2nc(SCc3cc(C)cc(C)c3)[nH]c(=O)c2C#N)cc(OC)c1OC,1480,,,inhibition at 5 µM (RAW264.7 [2]): 69.3%; inhibition at 10 µM (RAW264.7 [3]): 92.1%
COc1ccc(-c2nc(NCc3ccccc3)[nH]c(=O)c2C#N)cc1OC,16300,,,
CNC(=O)c1cccc(-c2nc(SCc3ccccc3Cl)[nH]c(=O)c2C#N)c1,,66.4,65.9,
N#Cc1c(-c2ccc(OC(F)(F)F)cc2)nc(SCc2ccccc2Cl)[nH]c1=O,,45.8,17.1,
COc1ccc(-c2nc(SCc3ccccc3Cl)[nH]c(=O)c2C#N)c(OC)c1OC,,53.1,51.7,
Oc1ccc(-c2[nH]c(-c3ccccc3O)nc2-c2ccccc2)cc1,,,,inhibition [9]: 53%; inhibition [10]: 11.8%; inhibition [11]: 17.2%; inhibition [12]: 3.96%
COc1cc(-c2nc(SCc3ccccc3[N+](=O)[O-])[nH]c(=O)c2C#N)cc(OC)c1OC,790,,,inhibition at 5 µM (RAW264.7 [2]): 29.3%; inhibition at 10 µM (RAW264.7 [3]): 32.4%
COc1cc(-c2nc(SCc3ccc(C)cc3)[nH]c(=O)c2C#N)cc(OC)c1OC,1380,,,inhibition at 5 µM (RAW264.7 [2]): 65.3%; inhibition at 10 µM (RAW264.7 [3]): 87.4%
COc1ccc(OC)c(-c2nc(SCc3ccccc3Cl)[nH]c(=O)c2C#N)c1,,51.6,43,

Compound,Ki [1] [nM],inhibition [4] [%],inhibition [5] [%],further results
Cc1sc2c(c1C)C(c1ccc(Cl)cc1)=N[C@@H](CC(=O)Nc1ccc(O)cc1)c1nnc(C)n1-2 [BIRABRESIB],,,,inhibition at 5 µM (RAW264.7 [2]): 93.4%; inhibition at 10 µM (RAW264.7 [3]): 99.9%; Activity (Mus musculus): Active
COc1cccc(-c2nc(SCc3ccccc3Cl)[nH]c(=O)c2C#N)c1,,45.3,45.1,
COc1cccc(-c2cc(=O)[nH]c(N3CCN(c4ccccc4)CC3)n2)c1,,,,inhibition [9]: 39%; inhibition [10]: 1.56%; inhibition [11]: 41.7%; inhibition [12]: 11%
COc1ccc(-c2nc(SCc3ccccc3Cl)[nH]c(=O)c2C#N)cc1OC,3230,65.1,68.7,
COc1ccc(CNC(=O)C2CCCN(c3nc4c(-c5ccc(C)cc5)csc4c(=O)[nH]3)C2)cc1 (stereo not drawn),,,,inhibition [9]: 21.9%; inhibition [10]: 2.1%; inhibition [11]: 29.7%; inhibition [12]: 3.8%
COc1cc(-c2nc(SCc3ccccc3C(F)(F)F)[nH]c(=O)c2C#N)cc(OC)c1OC,1190,,,inhibition at 5 µM (RAW264.7 [2]): 62.4%; inhibition at 10 µM (RAW264.7 [3]): 81%
COc1ccccc1NS(=O)(=O)c1cc(-c2n[nH]c(=O)c3ccccc23)ccc1C,,,,inhibition [9]: 19%; inhibition [11]: 21.7%; inhibition [12]: 1.26%
Cc1cccc(OCc2occc2C(=O)N(C)Cc2cc(O)nc3ccccc23)c1,,,,inhibition [9]: 11.3%; inhibition [10]: 3.59%; inhibition [11]: 15.1%; inhibition [12]: 4.71%
CCOc1ccc(-c2nc(SCc3ccccc3Cl)[nH]c(=O)c2C#N)cc1OC,,64.7,55.7,
COc1cc(-c2nc(SCc3ccccc3F)[nH]c(=O)c2C#N)cc(OC)c1OC,870,,,inhibition at 5 µM (RAW264.7 [2]): 33.7%; inhibition at 10 µM (RAW264.7 [3]): 94.1%
N#Cc1c(O)nc(SCc2ccccc2Cl)nc1-c1ccccc1,12300,47,46.5,inhibition [9]: 71.9%; inhibition [10]: 7.01%; inhibition [11]: 83.5%; inhibition [12]: 19.3%; Kd [6]: 184000 nM; K [7]: 7.28 10^2/Ms; Kdiss [8]: 1.34 10^-1/s
COc1ccc(-c2nc(SCCc3ccccc3Cl)[nH]c(=O)c2C#N)cc1OC,7580,,,
CCOc1ccc(-c2nc(SCc3ccccc3Cl)[nH]c(=O)c2C#N)cc1OCC,,56.8,55.9,
CCOc1cc(-c2nc(SCc3ccccc3Cl)[nH]c(=O)c2C#N)ccc1OC,,65.3,62.4,
COc1cc(-c2nc(SCc3ccccc3Cl)[nH]c(=O)c2C#N)cc(O)c1OC,1950,69.3,63.4,
COc1ccccc1-c1nc(SCc2ccccc2Cl)[nH]c(=O)c1C#N,,44.3,47.5,
Cc1cc2nc(SCC(=O)N(C)c3cccc(Cl)c3)[nH]c(=O)c2[nH]1,,,,inhibition [9]: 14.7%; inhibition [10]: 4.63%; inhibition [11]: 17.2%; inhibition [12]: 3.96%
N#Cc1c(-c2ccc3c(c2)OCO3)nc(SCc2ccccc2Cl)[nH]c1=O,,45.3,44.3,
COc1cc(-c2nc(SCc3cccc(C)c3C)[nH]c(=O)c2C#N)cc(OC)c1OC,1730,,,inhibition at 5 µM (RAW264.7 [2]): 51.8%; inhibition at 10 µM (RAW264.7 [3]): 78.2%
N#Cc1c(-c2ccc3c(c2)OCCO3)nc(SCc2ccccc2Cl)[nH]c1=O,,55.5,53.8,
